These results are taken from patent US8735406B2, “8-oxodihydropurine derivative” (Dainippon Sumitomo Pharma Co., Ltd., priority 2009, dated 2014).

In this experiment the target is T1, FAAH (Rattus norvegicus, UniProt P97612).
T1 construct: Preparation of Rat Brain Membranes Preparations (FAAH Enzyme Solution); from tissue; host or cells: rat cerebrum (brain membrane preparation)
T1 sequence (P97612 1-579): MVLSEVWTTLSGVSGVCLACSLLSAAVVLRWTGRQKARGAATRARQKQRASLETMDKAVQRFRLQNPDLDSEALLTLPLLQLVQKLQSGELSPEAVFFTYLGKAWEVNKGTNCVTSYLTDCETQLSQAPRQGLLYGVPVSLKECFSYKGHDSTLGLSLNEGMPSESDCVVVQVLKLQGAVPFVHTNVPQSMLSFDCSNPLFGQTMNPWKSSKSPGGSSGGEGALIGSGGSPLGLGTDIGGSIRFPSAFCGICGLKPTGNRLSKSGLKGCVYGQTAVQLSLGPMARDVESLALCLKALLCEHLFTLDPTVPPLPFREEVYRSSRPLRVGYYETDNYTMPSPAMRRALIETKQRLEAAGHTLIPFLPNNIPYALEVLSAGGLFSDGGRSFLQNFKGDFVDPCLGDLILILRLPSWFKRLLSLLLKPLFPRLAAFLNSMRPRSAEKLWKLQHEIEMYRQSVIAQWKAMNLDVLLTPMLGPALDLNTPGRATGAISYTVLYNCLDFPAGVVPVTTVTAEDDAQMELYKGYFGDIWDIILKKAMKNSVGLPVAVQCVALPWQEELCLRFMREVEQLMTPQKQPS
The experiment in a line: Determination of FAAH inhibitory activity in rat (rat brain membrane preparations, [3H]-anandamide hydrolysis). The following applies: rat brain membrane preparations; for inhibition at 0.1 µM: 100 nM test substance, read-out: FAAH Inhibition, Inhibition Rate at 100 nM; for IC50: test substance 0.1 nM to 1 μM, read-out: FAAH Inhibition IC50. The format is biochemical. A digest of the protocol:
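Rat cerebrum membranes (100 μg/mL protein) preincubated 10 min at 37 °C with compound (1% DMSO) in pH 7.6 Tris buffer with 1.5% BSA. Substrate 2 nM [3H]-anandamide plus 2 μM anandamide added for 10 min at 37 °C. [3H]-ethanolamine in the aqueous phase after chloroform/methanol extraction was scintillation counted; IC50 over 0.1 nM–1 μM.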

Each structure is given as a SMILES string. Some results are limits rather than exact numbers.

The term inhibition denotes the relative decrease from the control value, in per cent. What is called IC50 is the point on the concentration scale where inhibition reaches its midpoint. In the case of `Cn1c(=O)n(C(=O)N2CCCC2)c2cnc(-c3ccc(C(F)(F)F)cc3)nc21` [compound 178], the inhibition at 0.1 µM turned out to be 96% and the IC50 is 42 nM.

Take `Cn1c(=O)n(C(=O)N2CCCC2)c2cnc(-c3ccc(-c4ccccc4)cc3)nc21` [compound 179]: the inhibition at 0.1 µM was 97% and the IC50 amounted to 44 nM.

Consider `CCCc1ccc(-c2ncc3c(n2)n(C)c(=O)n3C(=O)N2CCCC2)cc1` [compound 180], for which the inhibition at 0.1 µM was determined as 99% and the IC50 was determined as 38 nM.

With `Cn1c(=O)n(C(=O)N2CCCC2)c2cnc(-c3ccc(C#N)cc3)nc21` [compound 181], the inhibition at 0.1 µM worked out at 101% and the IC50 was determined as 4 nM.

On to `CC(=O)c1ccc(-c2ncc3c(n2)n(C)c(=O)n3C(=O)N2CCCC2)cc1` [compound 184], for which the inhibition at 0.1 µM amounted to 102% and the half-inhibitory concentration (IC50) stood at 4 nM.

Regarding `Cn1c(=O)n(C(=O)N2CCCC2)c2cnc(-c3ccc(C(C)(C)C)cc3)nc21` [compound 185], the inhibition at 0.1 µM was 58% and the half-maximal inhibitory concentration (IC50) was determined as 89 nM.

Turning to `CC(=O)c1cccc(-c2ncc3c(n2)n(C)c(=O)n3C(=O)N2CCCC2)c1` [compound 186], the inhibition at 0.1 µM is 102% and the IC50 amounted to 7 nM.

Turning to `Cn1c(=O)n(C(=O)N2CCCC2)c2cnc(-c3ccc(F)cc3F)nc21` [compound 188], the inhibition at 0.1 µM is 99% and the IC50 amounted to 9 nM.

Consider `Cn1c(=O)n(C(=O)N2CCCC2)c2cnc(-c3ccc(F)c(F)c3)nc21` [compound 190], for which the inhibition at 0.1 µM was determined as 100% and the IC50 is 6 nM.

Turning to `COc1ccc(-c2ncc3c(n2)n(C)c(=O)n3C(=O)N2CCCC2)cc1F` [compound 191], the inhibition at 0.1 µM is 105% and the IC50 is 7 nM.

Take `Cc1ccc(-c2ncc3c(n2)n(C)c(=O)n3C(=O)N2CCCC2)cc1F` [compound 192]: the inhibition at 0.1 µM was 103% and the IC50 worked out at 39 nM.

For the compound `CCOc1cc(F)cc(-c2ncc3c(n2)n(C)c(=O)n3C(=O)N2CCCC2)c1` [compound 193], the inhibition at 0.1 µM was determined as 102% and the IC50 was found to be 42 nM.

As to `COc1ccc(F)cc1-c1ncc2c(n1)n(C)c(=O)n2C(=O)N1CCCC1` [compound 195], the inhibition at 0.1 µM came to 83% and the IC50 stood at 66 nM.

For `Cc1cc(C)cc(-c2ncc3c(n2)n(C)c(=O)n3C(=O)N2CCCC2)c1` [compound 197], the inhibition at 0.1 µM was 69% and the concentration for half-maximal inhibition (IC50) is 70 nM.

For the compound `Cn1c(=O)n(C(=O)N2CCCC2)c2cnc(-c3ccc(OC(F)(F)F)c(F)c3)nc21` [compound 198], the inhibition at 0.1 µM worked out at 92% and the IC50 is 46 nM.

With `Cn1c(=O)n(C(=O)N2CCCC2)c2cnc(-c3cc(C(F)(F)F)ccc3F)nc21` [compound 199], the inhibition at 0.1 µM was 68% and the IC50 came out at 72 nM.

For the compound `Cn1c(=O)n(C(=O)N2CCCC2)c2cnc(-c3cccc(OC(F)(F)F)c3)nc21` [compound 204], the inhibition at 0.1 µM is 81% and the IC50 worked out at 56 nM.

`COc1cncc(-c2ncc3c(n2)n(C)c(=O)n3C(=O)N2CCCC2)c1` [compound 208]: the inhibition at 0.1 µM amounted to 106% and the IC50 turned out to be 10 nM.

In the case of `Cn1c(=O)n(C(=O)N2CCCC2)c2cnc(-c3cccnc3F)nc21` [compound 209], the inhibition at 0.1 µM came out at 103% and the half-maximal inhibitory concentration (IC50) is 24 nM.

Turning to `CCOc1ccc(-c2ncc3c(n2)n(C)c(=O)n3C(=O)N2CCCC2)cn1` [compound 210], the inhibition at 0.1 µM was determined as 103% and the IC50 was found to be 8 nM.

For the compound `Cn1c(=O)n(C(=O)N2CCCC2)c2cnc(-c3cncc(F)c3)nc21` [compound 211], the inhibition at 0.1 µM turned out to be 101% and the concentration for half-maximal inhibition (IC50) came out at 8 nM.

On to `Cc1cncc(-c2ncc3c(n2)n(C)c(=O)n3C(=O)N2CCCC2)c1` [compound 212], for which the inhibition at 0.1 µM was 88% and the IC50 is 54 nM.

Take `Cn1c(=O)n(C(=O)N2CCCC2)c2nc(-c3ccccc3F)ncc21` [compound 225]: the inhibition at 0.1 µM was found to be 57% and the IC50 was 89 nM.

Consider `COc1ccc(/C=C/c2ncc3c(n2)n(C(=O)N2CCCC2)c(=O)n3C)cc1` [compound 242], for which the inhibition at 0.1 µM is 40% and the half-maximal inhibitory concentration (IC50) was greater than 100 nM.

On to `Cc1ccc(Cc2ncc3c(n2)n(C)c(=O)n3C(=O)N2CCCC2)cc1` [compound 259], for which the inhibition at 0.1 µM turned out to be 95% and the IC50 worked out at 41 nM.

Regarding `COc1ccccc1Cc1ncc2c(n1)n(C)c(=O)n2C(=O)N1CCCC1` [compound 260], the inhibition at 0.1 µM was 84% and the IC50 worked out at 58 nM.

Regarding `CCOc1ccc(Cc2ncc3c(n2)n(C)c(=O)n3C(=O)N2CCCC2)cc1` [compound 263], the inhibition at 0.1 µM came out at 75% and the IC50 turned out to be 68 nM.

In the case of `Cn1c(=O)n(C(=O)N2CCCC2)c2cnc(Cc3ccc(C#N)cc3)nc21` [compound 264], the inhibition at 0.1 µM is 91% and the IC50 stood at 54 nM.

Regarding `Cn1c(=O)n(C(=O)N2CCCC2)c2cnc(Cc3ccc(F)c(F)c3)nc21` [compound 269], the inhibition at 0.1 µM is 96% and the concentration for half-maximal inhibition (IC50) turned out to be 42 nM.

Take `COc1cc(Cc2ncc3c(n2)n(C)c(=O)n3C(=O)N2CCCC2)cc(OC)c1` [compound 271]: the inhibition at 0.1 µM was 39% and the IC50 was greater than 100 nM.

Turning to `Cn1c(=O)n(C(=O)N2CCCC2)c2cnc(Cc3cccc(-c4ccccc4)c3)nc21` [compound 272], the inhibition at 0.1 µM was determined as 35% and the half-maximal inhibitory concentration (IC50) was greater than 100 nM.

`CCN(C)C(=O)n1c(=O)n(C)c2nc(Cc3ccc(C(F)(F)F)cc3)ncc21` [compound 283]: the inhibition at 0.1 µM is 59% and the IC50 turned out to be 74 nM.

Regarding `Cn1c(=O)n(C(=O)N2CCCC2)c2nc(Cc3ccccc3)ncc21` [compound 285], the inhibition at 0.1 µM was 66% and the IC50 came to 77 nM.

As to `COc1ccccc1Cc1ncc2c(n1)n(C(=O)N1CCCC1)c(=O)n2C` [compound 291], the inhibition at 0.1 µM amounted to 58% and the half-inhibitory concentration (IC50) was determined as 75 nM.

Consider `CN(C)C(=O)n1c(=O)n(C)c2cnc(-c3ccc(OC(F)(F)F)cc3)nc21` [compound 318], for which the inhibition at 0.1 µM was 90% and the IC50 stood at 27 nM.

Take `CN(C)C(=O)n1c(=O)n(C)c2cnc(-c3cccc(OC(F)(F)F)c3)nc21` [compound 319]: the inhibition at 0.1 µM came to 95% and the IC50 is 18 nM.

With `CCOc1ccc(-c2ncc3c(n2)n(C(=O)N(C)C)c(=O)n3C)cc1` [compound 320], the inhibition at 0.1 µM stood at 45% and the 50% inhibitory concentration (IC50) was found to be 113 nM.

Regarding `CCOc1cccc(-c2ncc3c(n2)n(C(=O)N(C)C)c(=O)n3C)c1` [compound 321], the inhibition at 0.1 µM turned out to be 54%.

For the compound `CN(C)C(=O)n1c(=O)n(C)c2cnc(-c3cccc(F)c3)nc21` [compound 323], the inhibition at 0.1 µM was determined as 57% and the half-inhibitory concentration (IC50) is 77 nM.

Turning to `Cc1cccc(-c2ncc3c(n2)n(C(=O)N(C)C)c(=O)n3C)c1` [compound 324], the inhibition at 0.1 µM came out at 55% and the IC50 was found to be 82 nM.

`CN(C)C(=O)n1c(=O)n(C)c2cnc(-c3cccc(C(F)(F)F)c3)nc21` [compound 325]: the inhibition at 0.1 µM was determined as 101% and the IC50 is 11 nM.

For `CN(C)C(=O)n1c(=O)n(C)c2cnc(-c3cccc(OCc4ccccc4)c3)nc21` [compound 327], the inhibition at 0.1 µM was 23% and the concentration for half-maximal inhibition (IC50) is 109 nM.

Turning to `CN(C)C(=O)n1c(=O)n(C)c2cnc(-c3cccc(Cl)c3)nc21` [compound 328], the inhibition at 0.1 µM is 118% and the half-inhibitory concentration (IC50) turned out to be 5 nM.

Consider `CN(C)C(=O)n1c(=O)n(C)c2cnc(-c3ccc(Cl)cc3)nc21` [compound 329], for which the inhibition at 0.1 µM was 95% and the IC50 came out at 12 nM.

Regarding `CCN(C)C(=O)n1c(=O)n(C)c2cnc(-c3cccc(C)c3)nc21` [compound 340], the inhibition at 0.1 µM is 71% and the IC50 was 50 nM.

In the case of `CCN(C)C(=O)n1c(=O)n(C)c2cnc(-c3cccc(OC(F)(F)F)c3)nc21` [compound 341], the inhibition at 0.1 µM is 102% and the IC50 was less than 1 nM.

For the compound `CCN(C)C(=O)n1c(=O)n(C)c2cnc(-c3cccc(Cl)c3)nc21` [compound 342], the inhibition at 0.1 µM was determined as 76% and the IC50 stood at 52 nM.

As to `CCN(C)C(=O)n1c(=O)n(C)c2cnc(-c3cccc(OC(F)F)c3)nc21` [compound 343], the inhibition at 0.1 µM amounted to 95% and the IC50 was 14 nM.

Take `CCN(C)C(=O)n1c(=O)n(C)c2cnc(-c3cccc(C(F)F)c3)nc21` [compound 344]: the inhibition at 0.1 µM was 93% and the half-maximal inhibitory concentration (IC50) was found to be 13 nM.

As for `CCN(C)C(=O)n1c(=O)n(C)c2cnc(-c3ccc(OC(F)F)cc3)nc21` [compound 345], the inhibition at 0.1 µM is 101% and the IC50 is 9 nM.
